Consider 18 compounds from ChEMBL document CHEMBL3272017, “Adrenergic sulfonanilides. 4. Centrally active beta-adrenergic agonists” (J Med Chem, 1976).

Structures are written as SMILES. The source made the active and inactive calls. The rule behind the calls is not given here. Some results are limits rather than exact numbers.

The test system of series [1] is Rattus norvegicus. As to the kind of experiment: Antagonism of morphine-induced analgesia in rat at 20 mg/kg, sc. The series is classed as functional.
The species entered for series [2] is Rattus norvegicus. As to conditions: Tail.
The subject of series [3] is Rattus norvegicus. The series is described as follows: Antagonism of morphine-induced analgesia in sc dosed rat.
The species named for series [4] is Cavia porcellus. As to the kind of experiment: Agonist activity at beta-adrenoceptor in guinea pig tracheal spiral assessed as potency for 75% relaxation of spontaneous contraction relative to soterenol. In kind it is tissue-based. As to conditions: Trachea.
The subject of series [5] is Mus musculus. The series is described as follows: Analgesic activity in sc dosed mouse assessed as reduction in phenylalanine-induced writhing. In kind it is functional. On the technique in general: An intraperitoneal irritant provokes the stretching counted in writhing tests.
Series [6] has as its system Rattus norvegicus. The series is described as follows: Analgesic activity in sc dosed rat by tail flick test. In kind it is functional.
Series [7] concerns Mus musculus. As to the kind of experiment: Inhibition of reserpine-induced ptosis in po dosed mouse. In kind it is functional.
Series [8] deals with Mus musculus. The series is described as follows: Reversal of reserpine-induced ptosis in po dosed mouse. In kind it is functional.
Series [9] is described as follows: Activity at alpha-adrenoceptor in rat seminal vesicle assessed as potency for producing 50% of that of l-epinephrine-induced contraction relative to soterenol. The series is classed as tissue-based.
The species named for series [10] is Cavia porcellus. As to the kind of experiment: Blockade of beta-adrenoceptor in guinea pig tracheal spiral relative to sotalol. To be noted: Trachea. The series is classed as tissue-based.
In series [11] the test system is Hypothalamus. As to the kind of experiment: Drug uptake in Sprague-Dawley rat hypothalamus at 0.2 mg/kg, ip after 30 mins. To be noted: in vivo, 0.5 h. The arrangement: dose 0.2 mg/kg, route intraperitoneal. The series is classed as ADME, organism-based.
A further series relates to Brain. As to the kind of experiment: Drug uptake in Sprague-Dawley rat whole brain at 0.2 mg/kg, ip after 30 mins. In kind it is ADME, organism-based. On the set-up: dose 0.2 mg/kg, route intraperitoneal. To be noted: in vivo, 0.5 h.
The test system of series [12] is Hypothalamus. As to the kind of experiment: Drug uptake in Sprague-Dawley rat hypothalamus at 0.3 mg/kg, ip after 30 mins. The series is classed as ADME, organism-based. The arrangement: dose 0.3 mg/kg, route intraperitoneal. To be noted: in vivo, 0.5 h.
Where [13] appears, read: Mus musculus, sc, read-out: ED50.
The mark [14] stands for this setting: Mus musculus, po, read-out: ED50.

Turning to `CC(C)NCC(O)c1ccc(O)c(NS(C)(=O)=O)c1` (configuration not stated), the result in the series on Rattus norvegicus [1] was inactive. Moreover, the ED50 result in the series filed under Rattus norvegicus [2] is “inactive”.

For `CN(C)S(=O)(=O)Nc1cc(C(O)CNC2CC2)ccc1O.Cl` (configuration not stated), the ED50 amounted to 0.72 mg/kg in the series with Rattus norvegicus [3]; 1.7 mg/kg with Mus musculus [5] (setting [13]); 50 mg/kg in the series on Rattus norvegicus [6]; 0.94 mg/kg with Mus musculus [7] (setting [14]); 1.3 mg/kg in the series on Mus musculus [8] (setting [14]). For the same compound, the fold change (FC) in the series filed under Cavia porcellus [4] turned out to be 0.028.

`Oc1ccc(C(O)CNC2CC2)cc1Cl` (configuration not stated) registered an Activity in the series on Rattus norvegicus [1] (route subcutaneous) of 14.5%. Besides, the 50% effective dose (ED50) in the series with Mus musculus [5] (setting [13]) was greater than 6 mg/kg.

Consider `CC(N)Cc1ccccc1.O=S(=O)(O)O` (racemic) [AMPHETAMINE SULFATE], for which the ED50 in the series with Mus musculus [7] (setting [14]) was determined as 0.67 mg/kg; with Mus musculus [8] (setting [14]) it was 1.94 mg/kg.

With `CS(=O)(=O)Nc1cc(C(=O)CNC2CC2)ccc1O.Cl`, the outcome in the series on Rattus norvegicus [1] was inactive. Also, the median effective dose (ED50) with Mus musculus [5] (setting [13]) was greater than 6 mg/kg.

Take `CS(=O)(=O)Nc1cc(C(O)CNC2CC2)cc(Cl)c1O.Cl` (configuration not stated): in the series on Rattus norvegicus [1] (route subcutaneous), the Activity amounted to 20.8%. Also, the fold change (FC) in the series listed under Cavia porcellus [4] turned out to be 0.048; in [9] it was 4.9. For the same compound, the median effective dose (ED50) is greater than 6 mg/kg with Mus musculus [5] (setting [13]), 0.072 mg/kg in the series on Mus musculus [7] (setting [14]) and 0.082 mg/kg in the series with Mus musculus [8] (setting [14]).

With `C[C@H](NC1CC1)[C@H](O)c1cccc(NS(C)(=O)=O)c1.Cl` (relative stereo), the ED50 in the series with Mus musculus [5] (setting [13]) was greater than 6 mg/kg. Moreover, the fold change (FC) in the series filed under Cavia porcellus [10] is 0.1.

As for `CC(C)NCC(O)c1ccc(O)c(NS(C)(=O)=O)c1.Cl` (configuration not stated) [SOTERENOL HYDROCHLORIDE], the Drug uptake entry in the series with Hypothalamus [11] was “Not Active”; with Brain, “Not Active”; with Hypothalamus [12] it was “Active”.

As for `CCC(Cc1ccc(O)c(NS(C)(=O)=O)c1)NC1CC1.Cl` (configuration not stated), in the series listed under Cavia porcellus [4], the fold change (FC) was 0.0013. Further, in the series on Mus musculus [5] (setting [13]), the ED50 is greater than 6 mg/kg.

For `CC1(NCC(O)c2ccc(O)c(NS(C)(=O)=O)c2)CC1.Cl` (configuration not stated), the 50% effective dose (ED50) in the series with Rattus norvegicus [3] turned out to be 1 mg/kg; in the series with Mus musculus [7] (setting [14]), 0.52 mg/kg; in the series with Mus musculus [8] (setting [14]) it was 1.1 mg/kg. In the series filed under Cavia porcellus [4], the fold change (FC) was determined as 2.33.

Regarding `CS(=O)(=O)Nc1cccc(C(O)CNC2CC2)c1.Cl` (configuration not stated), the values for the fold change (FC) in the series filed under Cavia porcellus [4] and in the series listed under Cavia porcellus [10] were less than 0.01 and 0.05, respectively. In addition, the ED50 in the series with Mus musculus [5] (setting [13]) is greater than 6 mg/kg; with Mus musculus [7] (setting [14]), 1 mg/kg; with Mus musculus [8] (setting [14]), 0.8 mg/kg.

As for `Oc1ccc(C(O)CNC2CC2)cc1` (configuration not stated), the result in the series with Rattus norvegicus [1] was inactive. Also, the fold change (FC) in the series filed under Cavia porcellus [4] stood at 0.0136. For the same compound, the median effective dose (ED50) in the series with Mus musculus [5] (setting [13]) turned out to be 5.6 mg/kg. Besides, the ED50 result in the series listed under Rattus norvegicus [2] was “inactive”.

Regarding `CS(=O)(=O)Nc1cc(C(O)CNC2CC2)ccc1O.Cl` (single isomer, unassigned; (-)), the ED50 is 0.66 mg/kg in the series on Mus musculus [5], 0.175 mg/kg with Mus musculus [7] and 0.23 mg/kg in the series on Mus musculus [8]. Besides, the “fold change (FC)” value in [9] turned out to be 108.

In the case of `CS(=O)(=O)Nc1cc(C(O)CNC2CCC2)ccc1O.Cl` (configuration not stated), the fold change (FC) in the series listed under Cavia porcellus [4] was 0.36. Further, the ED50 in the series on Mus musculus [5] (setting [13]) is greater than 6 mg/kg; in the series with Mus musculus [7] (setting [14]), 20 mg/kg; in the series with Mus musculus [8] (setting [14]), 24 mg/kg.

With `CS(=O)(=O)Nc1cc(C(O)CNC2CC2)ccc1O.Cl` (configuration not stated), the Drug uptake entry in the series on Hypothalamus [11] was “Not Active”; in the series with Brain it was “Not Active”; in the series with Hypothalamus [12], “Active”.

For `CCN(CC(O)c1ccc(O)c(NS(C)(=O)=O)c1)C1CC1.Cl` (configuration not stated), the outcome with Rattus norvegicus [1] was inactive. Besides, the ED50 in the series with Mus musculus [5] (setting [13]) is greater than 6 mg/kg.

For `CS(=O)(=O)Nc1ccc(C(O)CNC2CC2)cc1` (configuration not stated), in the series with Rattus norvegicus [1], the outcome was inactive.

Take `CC(C)NCC(O)c1ccc(O)c(NS(C)(=O)=O)c1` (configuration not stated) [SOTERENOL]: the ED50 was greater than 40 mg/kg with Mus musculus [5] (setting [13]), 7.6 mg/kg with Mus musculus [7] (setting [14]) and 16.5 mg/kg in the series on Mus musculus [8] (setting [14]).

What is called ED50 is the dose that gives a 50% effect, or the effect in half of the subjects.
